Measured values published in the NIST ThermoML archive (doi:10.1016/j.fluid.2014.10.004).

How the values were obtained:
[1] = xn = mol fraction of the nth substance listed; details: 101.3 kPa, Liquid, Sing-around technique in a fixed-path interferometer
[2] = refractive index (Na D-line) (dimensionless); xn = mol fraction of the nth substance listed; details: 101.3 kPa, Liquid, Standard Abbe refractometry

CCCCCCl [1-chloropentane] + C[N+](=O)[O-]
Details	refractive index, 298.15 K	refractive index, 308.15 K	refractive index, 318.15 K	speed of sound, 298.15 K [m/s]	speed of sound, 308.15 K [m/s]	speed of sound, 318.15 K [m/s]
[1], x1 = 0.1043	–	–	–	1276	1237	1197.9
[1], x1 = 0.1721	–	–	–	1253.5	1214.4	1175.3
[1], x1 = 0.2575	–	–	–	1231.2	1192.3	1153.4
[1], x1 = 0.3466	–	–	–	1213.7	1174.8	1135.8
[1], x1 = 0.4525	–	–	–	1198.2	1159.2	1120.1
[1], x1 = 0.5435	–	–	–	1188.6	1149.2	1110.1
[1], x1 = 0.6864	–	–	–	1177.1	1137.8	1098.5
[1], x1 = 0.8325	–	–	–	1169.4	1130.1	1090.8
[1], x1 = 0.8859	–	–	–	1167.6	1128.1	1088.9
[1], x1 = 1	–	–	–	1164.2	1124.9	1085.8
[2], x1 = 0.1044	1.38453	1.37934	1.37439	–	–	–
[2], x1 = 0.1721	1.38722	1.3821	1.377	–	–	–
[2], x1 = 0.2575	1.39056	1.38539	1.38037	–	–	–
[2], x1 = 0.3466	1.39367	1.38858	1.38354	–	–	–
[2], x1 = 0.4525	1.39687	1.39181	1.38674	–	–	–
[2], x1 = 0.5435	1.39934	1.39422	1.38916	–	–	–
[2], x1 = 0.6864	1.40308	1.39792	1.39268	–	–	–
[2], x1 = 0.8325	1.40646	1.4012	1.396	–	–	–
[2], x1 = 0.8859	1.4076	1.40244	1.3972	–	–	–
[2], x1 = 1	1.41015	1.40501	1.39984	–	–	–

CC(Cl)(Cl)Cl [1,1,1-trichloroethane] + C[N+](=O)[O-]
Details	refractive index, 298.15 K	refractive index, 308.15 K	refractive index, 318.15 K	speed of sound, 298.15 K [m/s]	speed of sound, 308.15 K [m/s]	speed of sound, 318.15 K [m/s]
[1], x1 = 0.0921	–	–	–	1258.6	1219.9	1181.4
[1], x1 = 0.1727	–	–	–	1211.5	1173.7	1136
[1], x1 = 0.2614	–	–	–	1166.3	1129.1	1092.1
[1], x1 = 0.3951	–	–	–	1109.8	1073.5	1037.3
[1], x1 = 0.4862	–	–	–	1079.3	1043.4	1007.6
[1], x1 = 0.5904	–	–	–	1048.7	1013.2	977.89
[1], x1 = 0.7066	–	–	–	1019.3	984.72	949.76
[1], x1 = 0.8358	–	–	–	992.76	957.84	923.21
[1], x1 = 0.9012	–	–	–	980.43	945.74	911.39
[1], x1 = 1	–	–	–	962.94	928.68	894.71
[2], x1 = 0.0921	1.38777	1.38231	1.37702	–	–	–
[2], x1 = 0.1727	1.39427	1.38809	1.38239	–	–	–
[2], x1 = 0.2614	1.4006	1.39442	1.3887	–	–	–
[2], x1 = 0.3951	1.40894	1.40268	1.39695	–	–	–
[2], x1 = 0.4862	1.41396	1.40768	1.40208	–	–	–
[2], x1 = 0.5904	1.41903	1.41302	1.40727	–	–	–
[2], x1 = 0.7066	1.42412	1.41834	1.41249	–	–	–
[2], x1 = 0.8358	1.42923	1.42338	1.41753	–	–	–
[2], x1 = 0.9012	1.43156	1.42575	1.41987	–	–	–
[2], x1 = 1	1.43492	1.42908	1.42311	–	–	–

ClCCCCCl [1,4-dichlorobutane] + C[N+](=O)[O-]
Details	refractive index, 298.15 K	refractive index, 308.15 K	refractive index, 318.15 K	speed of sound, 298.15 K [m/s]	speed of sound, 308.15 K [m/s]	speed of sound, 318.15 K [m/s]
[1], x1 = 0.0825	–	–	–	1308.1	1269.3	1230.6
[1], x1 = 0.1759	–	–	–	1298.3	1260	1221.8
[1], x1 = 0.2825	–	–	–	1291.3	1253.5	1215.8
[1], x1 = 0.3815	–	–	–	1287.2	1249.9	1212.7
[1], x1 = 0.4815	–	–	–	1285	1248	1211.2
[1], x1 = 0.5911	–	–	–	1284	1247.3	1210.8
[1], x1 = 0.6898	–	–	–	1283.9	1247.5	1211.3
[1], x1 = 0.8208	–	–	–	1284.6	1248.6	1212.8
[1], x1 = 0.9262	–	–	–	1285.7	1249.9	1214.4
[1], x1 = 1	–	–	–	1286.6	1251	1215.7
[2], x1 = 0.0825	1.38965	1.38514	1.38078	–	–	–
[2], x1 = 0.1759	1.39985	1.39614	1.39174	–	–	–
[2], x1 = 0.2825	1.40987	1.40646	1.40219	–	–	–
[2], x1 = 0.3815	1.41799	1.41451	1.41005	–	–	–
[2], x1 = 0.4815	1.42515	1.42129	1.41679	–	–	–
[2], x1 = 0.5911	1.43204	1.4279	1.42357	–	–	–
[2], x1 = 0.6898	1.43765	1.43335	1.42901	–	–	–
[2], x1 = 0.8208	1.4443	1.43965	1.43512	–	–	–
[2], x1 = 0.9262	1.44906	1.44436	1.43974	–	–	–
[2], x1 = 1	1.45224	1.44756	1.44279	–	–	–

C[N+](=O)[O-] [nitromethane] + ClC(Cl)Cl
Details	refractive index, 298.15 K	refractive index, 308.15 K	refractive index, 318.15 K	speed of sound, 298.15 K [m/s]	speed of sound, 308.15 K [m/s]	speed of sound, 318.15 K [m/s]
[1], x2 = 0	–	–	–	1321.3	1281.8	1242.4
[1], x2 = 0.1197	–	–	–	1253.7	1215.5	1177.5
[1], x2 = 0.1772	–	–	–	1225	1187.5	1150.1
[1], x2 = 0.3007	–	–	–	1171.2	1134.6	1098.1
[1], x2 = 0.4009	–	–	–	1133.6	1097.8	1062
[1], x2 = 0.5	–	–	–	1101.3	1065.9	1030.7
[1], x2 = 0.5978	–	–	–	1072.5	1037.7	1002.9
[1], x2 = 0.7194	–	–	–	1041.5	1007.1	972.74
[1], x2 = 0.8607	–	–	–	1010.4	976.31	942.3
[1], x2 = 0.9562	–	–	–	993.45	959.49	925.65
[2], x2 = 0	1.37951	1.37501	1.37016	–	–	–
[2], x2 = 0.1197	1.39001	1.38474	1.37896	–	–	–
[2], x2 = 0.1772	1.39474	1.38937	1.3835	–	–	–
[2], x2 = 0.3007	1.40415	1.39828	1.39227	–	–	–
[2], x2 = 0.4009	1.41107	1.40509	1.39897	–	–	–
[2], x2 = 0.5	1.41742	1.41126	1.40531	–	–	–
[2], x2 = 0.5978	1.42317	1.41698	1.41097	–	–	–
[2], x2 = 0.7194	1.42971	1.42362	1.41741	–	–	–
[2], x2 = 0.8607	1.4364	1.43035	1.42424	–	–	–
[2], x2 = 0.9562	1.44032	1.43408	1.42786	–	–	–
